System: JNK
Assay: JNK solid state kinase assay (GST-Jun) in L929 cells
Assay type: cell-based, murine
Protocol: In panel A cells were treated for 10 minutes with the indicated concentration of TNFα. JNK activation was measured using a solid phase kinase assay resulting in phosphorylation of GST-Jun. In […] the time course of MAPK activation is shown. MAPK was isolated from cell lysates on DEAE sephacel columns and MAPK activation was measured by phosphorylation of the EGFR peptide substrate. Panel C depicts the concentration curve of MAPK activation by TNFα. Cells were treated with the indicated concentration of TNFα and MAPK was assayed.
Cell lines and culture. L929 cells (ATCC CCL1 were maintained in Dulbecco's modified Eagle's medium with 5% newborn calf serum and 5% bovine calf serum (BCS) supplemented with 100 ug/ml streptomycin and 100 U/ml penicillin. The cells were grown in 10 cm dishes at 37° C. in 7.5% CO2. Cells were made quiescent where indicated by incubation in Dulbecco's modified Eagle's medium and 0.1% bovine serum albumin for 24 h. Recombinant murine TNFα and recombinant human bFGF (147aa) were from R&D Systems, Minneapolis, Minn. Cells were pretreated where indicated with the MEK-1 inhibitor PD#098059 (Parke-Davis Pharmaceutical Corp. Ann Arbor, Mich.) for 1 h at 37° C. Cells were stimulated by incubation with the indicated cytokine or growth factor for various times at 37° C. Stimulation was stopped by rinsing the plates twice with ice cold phosphate buffered saline (PBS) and lysing the cells in the appropriate lysis buffer. Cells were scraped from the plates and nuclei were pelleted for 10 min at 14,000 RPM in a microcentrifuge. JNK assay. JNK activity was measured using a solid state kinase assay in which glutathione S-transferase-c-Jun (1-79) (GST-JUN) cound to glutathione-Sepharose 4B beads was used to affinity purify JNK and then JNK activity was measured in an in vitro kinase assay using the sepharose bound GST-Jun as a substrate (Hibi, M., et al. (1993) Genes & Development 7:2135-2148). Stimulated or unstimulated cells were lysed in 0.5% Nonidet P-40, 20 mM HEPES pH 7.2, 100 mM NaCl, 2 mM dithiothreitol, 1 mM EDTA, 1.0 mM phenylmethylsulfonylfluoride, 1 μg/ml aprotinin and the nuclei pelleted. Lysates were normalized for protein content. JNK was affinity purified from 50-100 μg of cell lysate by the addition of 10 ul of GST-Jun sepharose slurry (2 μg GST-Jun). Binding to GST-Jun efficiently isolates the two major forms of JNK (p45 and p55) and under the conditions used JNK isolation was linear for 10-250 μg of cell lysate. The lysates were rotated at 4° C. for 1-3 h. Beads were washed twice in lysis buffer and then twice in PAN (10 mM PIPES, pH 7.0, 100 mM NaCl, 21 μg/ml aprotinin). Kinase reactions were carried out at 30° C. for 15 min in 20 mM Hepes pH 7.2, 20 mM β-glycerophosphate, 10 mM p-nitrophenyl phosphate, 10 mM MgCl2, 1 mM dithiothreitol, 50 μm sodium vanadate, 10 μCi γ^32P-ATP 4300 Ci/mmole. The kinase reaction was linear from 0-30 min. MAPK Assay MAPK activity was measured exactly as described previously (Gardner, A. M., et al. (1994) Meth. Enzymol. 238:258-270) with the exception that MonoQ FPLC fractionation was replaced by step elution from a DEAE-Sephacel column using 0.5 M NaCl in loading buffer. The eluate was assayed in triplicate using the epidermal growth factor receptor 662-681 peptide (EGFR662-681) as a selective substrate for MAPK activity (Heasley, L. E., et al. (1994) American Journal of Physiology (Renal Fluid Electrolyte Physiol. 36) 267:F366-F373). […] Cells were lysed by scraping in ice cold RIPA buffer (50 mM Tris-HCl, pH 7.2, 150 mM NaCl, 0.1% SDS, 0.5% sodium deoxycholate, 1.0% Triton X-100, 10 mM sodium pyrophosphate, 25 mM β-glycerophosphate, 2 mM sodium vanadate, 2.1 μg/ml aprotinin) and the nuclei were pelletted. […]

Substance | JNK activation (0.1 ng/ml TNFα) | JNK activity relative to basal (1-2 hr post-stimulation) | concentration giving maximal JNK activation (L929 cells) [ng/mL] | time of peak JNK activity (L929 cells) [min] | effect on JNK activity (2.5 ng/ml bFGF) | effect on TNFα stimulation of JNK (L929 cells)
TNFα | greater than four-fold | two-fold above basal | 1 | 10 to 15 | – | –
bFGF: recombinant human bFGF (147aa), basic fibroblast growth factor | – | – | – | – | little or no effect on JNK activity | did not alter the magnitude of JNK activation in response to TNFα

Source: US20080201790A1, “Method and product for regulating cell responsiveness to external signals” (priority 1993, published 2008)
